Among the data in patent US12611378B2 (Bausch Health Ireland Limited, priority 2020, dated 2026) are Frel values, retold here.

This data set is described as follows: Regional bioavailability of rifaximin, open-label 5-way crossover study in healthy male subjects. The format is in vivo, human. Particulars: based on comparisons of AUC0-24 with AUCact-24, geometric mean. An excerpt: Blood samples were collected pre-dose and at specified time points after dosing for PK analysis.

Consider `CO[C@H]1/C=C/O[C@@]2(C)Oc3c(C)c(O)c4c(O)c(c5c(nc6cc(C)ccn65)c4c3C2=O)NC(=O)/C(C)=C\C=C\[C@H](C)[C@H](O)[C@@H](C)[C@@H](O)[C@@H](C)[C@H](OC(C)=O)[C@@H]1C` [Rifaximin, 4-Deoxy-4′-methylpyrido[1′,2′-1,2]imidazo[5,4-c]rifamycin SV], for which the Frel turned out to be 36.4% (Regimen B: 150 mg rifaximin SSD delivered to the proximal small bowel), 2.09% (Regimen C: 150 mg rifaximin SSD delivered to the distal small bowel), 0.216% (Regimen D: 150 mg rifaximin SSD delivered to the colon) and 7.08% (Regimen E: 150 mg rifaximin SSD delivered to the mid small bowel).
